{
  "source": "patent US12247022B2",
  "about": "“Combinations for treatment of NASH/NAFLD and related diseases” (Pfizer Inc., priority 2018, dated 2025)",
  "type_in_all_cases": "in vivo, rat",
  "key": {"[1]": {"test_system": "CDAHFD fed Male Wistar Hann rats", "test": "Liver stiffness by shearwave elastography, CDAHFD fed rats", "conditions": "twice daily for 6 weeks, Compound A 5 mg/kg, Compound D 30 mg/kg, or co-administration", "protocol": "(§1) A randomized, vehicle-controlled, 5-parallel arm study was conducted in male Wistar-Han rats (Charles River (Boston, MA)) fed a choline-deficient and high fat diet (CDAHFD) (Research diets; A16092003) to identify differences in improvements in markers of hepatic inflammation and fibrosis when administering either Compound A or Compound D alone as monotherapy or in combination. Standard laboratory conditions were used to house 60 rats (˜200 g); they were double housed and kept under 12:12-hour reverse light-dark schedule (lights off at 8:00 AM). Rats were fed choline deficient and high fat diet (CDAHFD) beginning 6-weeks prior to initiation of the study. Rats, randomized into 4 dosing groups (n=12/group), received twice daily administration of vehicle, Compound A (5 mg/kg) monotherapy, Compound D (30 mg/kg) monotherapy, or co-administration Compound A (5 mg/kg) and Compound D (30 mg/kg) for a period of 6-weeks. Animals (n=12) remaining on normal chow throughout the study and administered twice-daily vehicle were used as a control group. Blood samples were collected prior to starting compound administration and 3- and 6-week post compound administration for the assessment of circulating markers. […] Histology was assessed following 6-weeks of drug administration which corresponded to 12 weeks on the CDAHFD. […]"}, "[2]": {"test_system": "Ionized calcium binding adaptor molecule 1 (Iba1)", "test": "Hepatic Iba1 staining, CDAHFD fed rats", "conditions": "twice daily for 6 weeks; Compound A 5 mg/kg, Compound D 30 mg/kg, or co-administration; 12 weeks on CDAHFD", "protocol": "as §1, with “6-weeks.” for “6-weeks. Animals (n=12) remaining on normal chow throughout the study and administered twice-daily vehicle were used as a control group. Blood samples were collected prior to starting compound administration and 3- and 6-week post compound administration for the assessment of circulating markers.”\nFollowing the 12-weeks on CDAHFD, the animals were sacrificed by CO2 asphyxiation. […] A portion of the pulverized liver sample from each animal was processed and analyzed for gene expression markers of fibrogenesis. Rat taqman probes against […]SMA and COL1A1 were all assessed using Actb as housekeeping gene on qPCR. […]"}, "SREBP-1": {"test_system": "SREBP-1", "test": "Nuclear SREBP-1 localization in liver (Western blot, normalized to Histone 2B), Western diet fed rats", "conditions": "high dose (Compound A 10 mg/kg QD, Compound D 30 mg/kg BID); pooled liver samples per group", "protocol": "A randomized, vehicle-controlled, 8-parallel arm study was conducted in male Sprague-Dawley rats (Charles River (Boston, MA)) to obtain circulating and hepatic TG levels. Standard laboratory conditions were used to house 96 rats (˜200 g); they were double housed and kept under 12:12-hour reverse light-dark schedule (lights off at 8:00 AM). Rats were randomized into chow or Western diet groups and dose groups upon arrival and were given a 14-day lead-in period on either standard rat chow or Western diet prior to the start of the study. Standard Laboratory Rodent chow diet, 5053, was from LabDiet (PMI, St Louis, Missouri). Western Diet, D12079Bi, was from Research Diets (New Brunswick, New Jersey). […]\nNuclear and Membrane fractions were prepared by ultracentrifugation using standard methods from a portion of the pulverized liver samples, that were pooled per treatment group. Samples from the nuclear extract and the membrane fractions were analyzed by Western blotting for SREBP1. […] Nuclear SREBP1 levels were quantified using relative units and normalized to Histone 2B to control for sample loss during the nuclear fractionation and gel loading."}, "[3]": {"test_system": "Western diet fed Sprague Dawley rats", "test": "Fasted plasma triglyceride (TG), Western diet fed rats, oral dosing", "conditions": "oral monotherapy, 4 hour fast, 2 hours post-dose", "protocol": "A randomized, vehicle-controlled, 8-parallel arm study was conducted in male Sprague-Dawley rats (Charles River (Boston, MA)) to obtain circulating and hepatic TG levels. Standard laboratory conditions were used to house 96 rats (˜200 g); they were double housed and kept under 12:12-hour reverse light-dark schedule (lights off at 8:00 AM). Rats were randomized into chow or Western diet groups and dose groups upon arrival and were given a 14-day lead-in period on either standard rat chow or Western diet prior to the start of the study. Standard Laboratory Rodent chow diet, 5053, was from LabDiet (PMI, St Louis, Missouri). Western Diet, D12079Bi, was from Research Diets (New Brunswick, New Jersey).\nFor these studies, vehicle was prepared to make a 0.5% (wt/volume) of methyl cellulose (MC, Sigma Aldrich; 274429) in deionized water. The stock solutions with either Compound A (prepared from the tris salt) or Compound D were prepared with the respective compound to provide a concentration such that 10 ml of the solution would deliver the desired mg/kg dosage amount, where the average weight of the rats used was about 200 g.\nStarting on Day 1 of the study, rats were dosed orally (10 mL/kg) with either vehicle control (0.5% MC (wt/volume %) in dionized water), low or high doses of Compound A (1 mg/kg or 10 mg/kg QD, respectively), low or high doses of Compound D (5 mg/kg or 30 mg/kg BID respectively), or co-administration of low doses (Compound A at 1 mg/kg QD and Compound D at 5 mg/kg BID), or co-administration of high doses (Compound A at 10 mg/kg QD and Compound D at 30 mg/kg BID)\nFasted plasma analytes: Blood for determining fasted plasma TG was collected after a 4 hour fast, 2 hours post-dose (2 hours into the dark cycle) via lateral tail vein, transferred to BD Microtainer tubes coated with K2EDTA (PN365974), and centrifuged at 4° C. The resulting plasma samples were then analyzed on a Siemens Chemistry XPT clinical analyzer (Malven, PA) using Siemens triglycerides 2 assay reagents (ref 10335892)."}},
  "data": [
    {"smiles": "COc1cc(C(=O)N2CCC3(CC2)CC(=O)c2c(cnn2C(C)C)C3)cc(-c2ccc(C(=O)O)cc2)n1", "note": "[Compound A, 4-(4-(1-isopropyl-7-oxo-1,4,6,7-tetrahydrospiro[indazole-5,4′-piperidine]-1′-carbonyl)-6-methoxypyridin-2-yl)benzoic acid]", "values": [
      {"measurement": "liver stiffness (shearwave elastography, kPa)", "setting": "[1]", "value": "reduced liver stiffness"},
      {"measurement": "reduction of Iba1 staining", "setting": "[2]", "value": 15, "unit": "%"},
      {"measurement": "nuclear localization of SREBP-1, relative to vehicle treated Western diet fed rats", "setting": "SREBP-1", "value": "increased nuclear localization of SREBP-1"},
      {"measurement": "increase in fasted plasma TG, relative to vehicle administered Western diet fed rats", "setting": "[3]; high dose (Compound A 10 mg/kg QD)", "value": 1.7, "unit": "fold"},
      {"measurement": "increase in fasted plasma TG, relative to vehicle administered Western diet fed rats", "setting": "[3]; low dose (Compound A 1 mg/kg QD)", "value": 2.4, "unit": "fold"}
    ]},
    {"smiles": "CCOc1cccnc1Oc1cncc(-c2ncc(C(=O)N[C@H]3CCOC3)cn2)c1", "note": "[Compound D, (S)-2-(5-((3-ethoxypyridin-2-yl)oxy)pyridin-3-yl)-N-(tetrahydrofuran-3-yl)pyrimidine-5-carboxamide]", "values": [
      {"measurement": "liver stiffness (shearwave elastography, kPa)", "setting": "[1]", "value": "reduced liver stiffness"},
      {"measurement": "reduction of Iba1 staining", "setting": "[2]", "value": "did not alter"},
      {"measurement": "nuclear localization of SREBP-1, relative to vehicle treated Western diet fed rats", "setting": "SREBP-1", "value": "reduced SREBP-1 nuclear localization"},
      {"measurement": "reduction of fasted plasma TG, relative to vehicle administered Western diet fed rats", "setting": "[3]; high dose (Compound D 30 mg/kg BID)", "value": 35, "unit": "%"},
      {"measurement": "reduction of fasted plasma TG, relative to vehicle administered Western diet fed rats", "setting": "[3]; low dose (Compound D 5 mg/kg BID)", "value": 20, "unit": "%"}
    ]}
  ]
}
